Reference: article PMC13090440, “Targeting SARS-CoV-2 main protease (3CL^pro) with Paeonia-derived phytochemicals” (In Silico Pharmacology, 2026)

Target: T1, SARS-CoV-2 3CL^pro (Severe acute respiratory syndrome coronavirus 2, UniProt P0DTD1)
T1 construct: gene rep
Test: fluorogenic peptide cleavage assay, continuous
Assay type: biochemical

Question: Which IC50 does the source give for `COc1c(-c2ccc(O)c(O)c2)oc2cc(O)cc(O)c2c1=O` [3-O-methylquercetin] here?
Answer: The IC50 was 43.9 µM.
